The results in this text go back to PubChem BioAssay (NCI).

Test systems include COLO 205 colon; HOP-62 NSCLC; M14 melanoma; MOLT-4 leukemia; OVCAR-3 ovarian; RXF 393 renal; SF-268 CNS; SF-295 CNS; SW-620 colon; T-47D breast.
Common to all, as to assay: growth of human tumour cells (NCI), 48 h

Where “and” joins values, the source holds several entries; their conditions need not be identical. Equal values may be shown once.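 Values below derive from 48-hour exposures of cells grown in 96-well plates, with endpoints linearly interpolated between the two concentrations bracketing the appropriate inhibition level. GI50 is the concentration that inhibits growth by half. TGI: total growth inhibition.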

For the compound `COc1ccc(CNC(=O)c2ccc(-c3cc(-c4nnc(C)o4)ccc3C)cc2)cc1`, the GI50 was above 22.9 µM with COLO 205 colon; 17.5 µM in the assay on HOP-62 NSCLC; above 25 µM in the assay on M14 melanoma; 15.6 µM in the assay on MOLT-4 leukemia; 17.1 µM with OVCAR-3 ovarian; above 25 µM with RXF 393 renal. Also, the GI50 in the assay on SF-268 CNS was 21 µM; in the assay with SF-295 CNS, 7.6 µM; with SW-620 colon, above 25 µM; in the assay with T-47D breast it was 7.01 µM. Moreover, the TGI in the assay with COLO 205 colon, in the assay on HOP-62 NSCLC, in the assay on M14 melanoma, in the assay with MOLT-4 leukemia, in the assay on OVCAR-3 ovarian and in the assay on RXF 393 renal was above 25 µM in each case. The TGI in the assay with SF-268 CNS, in the assay on SF-295 CNS, in the assay on SW-620 colon and with T-47D breast was above 25 µM throughout.
With `CCCC(=O)Nc1cn(COC)c(C(=O)N2C[C@H]3C[C@@]34C2=CC(=O)c2[nH]cc(C)c24)n1`, the GI50 is 4.41 µM with COLO 205 colon; 4.52 µM in the assay with HOP-62 NSCLC; 7.14 µM in the assay with M14 melanoma; 1.6 µM in the assay with MOLT-4 leukemia; 4.93 µM with OVCAR-3 ovarian; 3.05 µM in the assay with RXF 393 renal. For the same compound, the GI50 is 3.4 µM in the assay with SF-268 CNS, 5 µM with SF-295 CNS, 13.4 µM with SW-620 colon and 2.91 µM with T-47D breast. The TGI with COLO 205 colon was 15.9 µM and 32.4 µM; with HOP-62 NSCLC, 50 µM and > 100 µM; with M14 melanoma, 50 µM and > 100 µM; in the assay on OVCAR-3 ovarian, 24.5 µM and 72 µM; with RXF 393 renal it was 26.9 µM and 8.82 µM; in the assay on SF-268 CNS, 50 µM and > 100 µM. For the same compound, the TGI in the assay with SF-295 CNS is 50 µM and 67.2 µM; in the assay on SW-620 colon, 50 µM and > 100 µM; in the assay on T-47D breast, 25.4 µM and 34.8 µM.
In the case of `Cc1cc(C)c2nccc(NCCCN(C)C)c2c1[N+](=O)[O-]`, the TGI was 28.5 µM with COLO 205 colon; above 100 µM in the assay with HOP-62 NSCLC; 33.7 µM with M14 melanoma; above 100 µM in the assay on MOLT-4 leukemia; above 100 µM in the assay on OVCAR-3 ovarian; 47.8 µM with RXF 393 renal. The TGI in the assay with SF-268 CNS is 95 µM; in the assay with SF-295 CNS, above 100 µM; in the assay on SW-620 colon, above 100 µM; in the assay on T-47D breast, above 100 µM.
Regarding `NC(=O)c1c(NC(=O)c2cccc(C(F)(F)F)c2)sc2c1CCC(=O)C2`, the GI50 is 0.437 µM with COLO 205 colon; 3.06 µM in the assay with HOP-62 NSCLC; 0.437 µM in the assay on M14 melanoma; 0.404 µM in the assay on MOLT-4 leukemia; 0.364 µM in the assay on OVCAR-3 ovarian; 0.352 µM in the assay with RXF 393 renal. Besides, the GI50 with SF-268 CNS was 0.429 µM; with SF-295 CNS, 1.23 µM; in the assay on SW-620 colon it was 0.234 µM; with T-47D breast, 0.274 µM. Also, the TGI was 1.8 µM with COLO 205 colon; above 91.5 µM in the assay with HOP-62 NSCLC; 11.6 µM in the assay on M14 melanoma; above 20.2 µM in the assay with MOLT-4 leukemia; 1.34 µM with OVCAR-3 ovarian; 2.92 µM in the assay with RXF 393 renal. Besides, the TGI in the assay with SF-268 CNS is above 100 µM; with SF-295 CNS, 9.07 µM; in the assay on SW-620 colon, 1.62 µM.
Consider `O=C(Nc1cccc(Cl)c1)c1cc(Cl)ccc1O`, for which the GI50 in the assay with COLO 205 colon is 2.64 µM; in the assay with HOP-62 NSCLC, 1.33 µM; with M14 melanoma, 0.851 µM; in the assay with MOLT-4 leukemia, 1.84 µM; in the assay on OVCAR-3 ovarian, 1.04 µM; with RXF 393 renal it was 0.849 µM. In addition, the GI50 with SF-268 CNS is 1.21 µM; in the assay on SF-295 CNS it was 1.21 µM; in the assay on SW-620 colon, 1.36 µM; with T-47D breast, 1.24 µM. The TGI in the assay on COLO 205 colon is 6.71 µM; in the assay on HOP-62 NSCLC, 4.03 µM; with M14 melanoma it was 5.4 µM; with MOLT-4 leukemia it was 5.04 µM; in the assay on OVCAR-3 ovarian it was above 100 µM; in the assay on RXF 393 renal, 4.27 µM. Also, the TGI in the assay on SF-268 CNS is above 40.3 µM; in the assay on SF-295 CNS, 3.75 µM; in the assay with SW-620 colon it was 9.85 µM; with T-47D breast, 7.38 µM.
Turning to `Cc1ccc(S(=O)c2ccc([N+](=O)[O-])c3nonc23)cc1` (stereo unspecified), the GI50 in the assay with COLO 205 colon is 1.9 µM; in the assay with HOP-62 NSCLC, 16.2 µM; in the assay on M14 melanoma, 11 µM; in the assay on MOLT-4 leukemia, 2.64 µM; in the assay on OVCAR-3 ovarian, 2.23 µM; in the assay on RXF 393 renal it was 2.33 µM. Moreover, the GI50 in the assay with SF-268 CNS was 15 µM; in the assay with SW-620 colon it was 2.18 µM; in the assay with T-47D breast, 2.04 µM. The TGI worked out at 3.43 µM with COLO 205 colon; 30.8 µM in the assay with HOP-62 NSCLC; 23.7 µM in the assay on M14 melanoma; 6.96 µM in the assay on MOLT-4 leukemia; 4.78 µM with OVCAR-3 ovarian; 5.53 µM in the assay with RXF 393 renal. Besides, the TGI amounted to 29.9 µM with SF-268 CNS, 5 µM in the assay on SW-620 colon and 4.59 µM in the assay on T-47D breast.
For `NCCNc1nc2ccccc2c2c(=O)c3cc(F)cc(Cl)c3sc12`, the GI50 is 1.69 µM in the assay with COLO 205 colon; 1.35 µM in the assay with HOP-62 NSCLC; 1.65 µM in the assay with M14 melanoma; 1.82 µM in the assay on MOLT-4 leukemia; 1.72 µM in the assay with OVCAR-3 ovarian; 1.62 µM in the assay with RXF 393 renal. Also, the GI50 is 1.57 µM in the assay on SF-268 CNS, 1.73 µM with SF-295 CNS, 1.54 µM with SW-620 colon and 1.55 µM with T-47D breast. Moreover, the TGI in the assay with COLO 205 colon came out at 3.31 µM; in the assay with HOP-62 NSCLC, 3.04 µM; in the assay on M14 melanoma, 3.03 µM; in the assay on MOLT-4 leukemia it was 3.69 µM; in the assay on OVCAR-3 ovarian it was 3.18 µM; in the assay on RXF 393 renal it was 3.16 µM. In addition, the TGI with SF-268 CNS came to 3.29 µM; in the assay on SF-295 CNS it was 3.18 µM; in the assay with SW-620 colon it was 3.08 µM; with T-47D breast, 3.48 µM.
As to `Nc1ccc2c(SCC(=O)Nc3ccccc3-c3ccccc3NC(=O)CSc3c4ccccc4nc4cc(N)ccc34)c3ccccc3nc2c1`, the TGI was 43 µM with COLO 205 colon; 63.4 µM in the assay on HOP-62 NSCLC; 59 µM in the assay with M14 melanoma; above 44.1 µM with MOLT-4 leukemia; 70.4 µM with OVCAR-3 ovarian; 63.5 µM with RXF 393 renal. Besides, the TGI was 93.3 µM in the assay with SF-268 CNS, 98 µM in the assay on SF-295 CNS, 67.4 µM with SW-620 colon and above 63.3 µM in the assay on T-47D breast.
